Assay results reported in patent US10309967B2, “Methods of diagnosing bipolar disorders and screening for therapeutic compounds” (National University Corporation Chiba University, priority 2015, dated 2019).
“Also recorded” adds a separate entry of the source.

Tested on: CSF samples from rats
Assay: Metabolomics (CE-TOFMS) of CSF samples from rats chronically treated with Li or VPA
Type: in vivo, rat
Conditions: chronic (4-weeks) treatment via drinking water
Method: Data from human samples are presented as mean±standard deviation (SD). Statistical analysis was performed using SAS software version 9.3 (SAS Institute, Cary, N.C.). Analyses of metabolites between control and BD groups were performed using unpaired t-tests and Wilcoxon rank sum tests. A logistic regression model with a stepwise selection method was used for the multivariate analysis and multiple regression analysis (consistent with description in Allen et al., Technometrics. 1974; 16(1):125-127; and Miller et al., Chapman and Hall. 1974, which are incorporated in their entireties by reference herein). […] The Mann-Whitney U test (two-tailed) was used to evaluate changes in expression levels of the ACO and IDH genes between control and BD groups. Rat data are presented as mean±SD. To determine the effects of drug treatment, a one-way ANOVA, followed by the post hoc Dunnett's test was used. P values of less than 0.05 for two-tailed tests were considered statistically significant.
The volume (50 μL) of CSF sample was added to 450 μL it methanol containing internal standards, and mixed. Then, 450 μL chloroform and 200 μL Milli-Q water was added to the mixture. After mixture, the mixture was centrifuged at 2,300×g and 4° C. for 5 min. Subsequently, 800 μL of upper aqueous layer was centrifugally filtered through a Millipore 5-kDa cutoff filter at 9,100×g and 4° C. for 120 min to remove proteins. The filtrate was centrifugally concentrated and re-suspended in 25 μL of Milli-Q water for analysis.
Cationic compounds were measured in the positive mode of CE-TOFMS (Agilent CE-TOFMS system Machine No. 3, Fused silica capillary, i.d. 50 μM×80 cm), and anionic compounds were measured in the positive and negative modes of CE-MS/MS (Agilent CE system and Agilent 6400 TripleQuad LC/MS Machine No. QqQ01, Fused silica capillary, i.d. 50 μM×80 cm), as reported previously (Soga et al., Anal. Chem. 2000; 72(6):1236-1241; Soga et al., Anal Chem. 2002; 74(10):2233-2239; Soga et al., J. Proteome Res. 2003; 2(5):488-494, which are incorporated in their entireties by reference herein). Peaks detected by CE-TOFMS and CE-MS/MS were extracted using automatic integration software (MasterHands, Keio University, Tsuruoka, Japan) (Sugimoto et al., Metabolomics. 2009; 6(1):78-95, which is incorporated in its entirety by reference herein) and MassHunter Quantitative Analysis B.04.00, Agilent Technologies, Santa Clara, Calif., USA) in order to obtain peak information including m/z, migration time (MT), and peak area. The peaks were annotated with putative metabolites from the HMT metabolite database based on their MTs in CE and m/z values determined by TOFMS. The tolerance range for the peak annotation was configured at ±0.5 min for MT and ±10 ppm for m/z. In addition, concentrations of metabolites were calculated by normalizing the peak area of each metabolite with respect to the area of the internal standard and by using standard curves, which were obtained by three-point calibrations.
The CSF concentrations of 116 major metabolites from several pathways were measured. […] Male Sprague-Dawley rats (Japan SLC Inc., Shizuoka, Japan) aged 6 weeks old were used in this study. All rats were housed in groups of three per cage in a room maintained at 23° C.±2° C. and 60±10% humidity with a 12/12 hour light/dark cycle (lights on at 7:00 a.m.). The rats were given free access to food and water. Animal care and use were conducted in accordance with the Institutional Guidelines for Animal Care and Use of Otsuka Pharmaceutical Co., Ltd. (Tokushima, Japan). […] The drinking water was replaced twice a week. […] All animals were decapitated on day 30 after CSF sampling, and brain regions (prefrontal cortex, and hippocampus) were dissected rapidly on ice. Metabolomic analyses of rat CSF samples were performed as described herein.

O=C([O-])[O-].[Li+].[Li+] [Li, lithium carbonate]
2-Oxoisovaleric acid Mean (rat CSF): 4.3 µM | 3-Phosphoglyceric acid Mean (rat CSF): 0.3 µM | ADP-ribose Mean (rat CSF): 0.010 µM | Adenosine Mean (rat CSF): 0.2 µM | Alanin (Ala) Mean (rat CSF): 54 µM | Arginine (Arg) Mean (rat CSF): 31 µM | Argininosuccinic acid Mean (rat CSF): 1.0 µM | Asparagic acid (Asp) Mean (rat CSF): 1.8 µM | Asparagine (Asn) Mean (rat CSF): 4.8 µM | Carnosine Mean (rat CSF): 0.5 µM | Choline Mean (rat CSF): 7.5 µM | Citric acid Mean (rat CSF): 57 µM | Citrulline Mean (rat CSF): 3.8 µM | Creatine Mean (rat CSF): 60 µM | Creatinine Mean (rat CSF): 6.0 µM | Dihydroxyacetone phosphate Mean (rat CSF): 0.6 µM | Fructose 6-phosphate Mean (rat CSF): 0.2 µM | Glucose 6-phosphate Mean (rat CSF): 0.5 µM | Glutamic acid (Glu) Mean (rat CSF): 2.0 µM | Glutamine (Gln) Mean (rat CSF): 534 µM | Glutathione (GSSG) Mean (rat CSF): 1.1 µM | Glyceraldehyde 3-phosphate Mean (rat CSF): 0.9 µM | Glycerol 3-phosphate Mean (rat CSF): 7.2 µM | Glycine (Gly) Mean (rat CSF): 5.5 µM | Histidine (His) Mean (rat CSF): 7.1 µM | Homoserine Mean (rat CSF): 0.10 µM | Hydroxyproline Mean (rat CSF): 1.1 µM | Hypoxanthine Mean (rat CSF): 1.2 µM | Inosine monophosphate (IMP) Mean (rat CSF): 0.10 µM | Isocitric acid Mean (rat CSF): 2.0 µM | Isoleucine (Ile) Mean (rat CSF): 1.5 µM | Lactic acid Mean (rat CSF): 2,438 μM | Leucine (Leu) Mean (rat CSF): 5.1 µM | Lysine (Lys) Mean (rat CSF): 71 µM | Malic acid Mean (rat CSF): 2.2 µM | Methionine (Met) Mean (rat CSF): 4.4 µM | Mevalonic acid Mean (rat CSF): 0.003 µM | N-Carbamoylaspartic acid Mean (rat CSF): 0.04 µM | Nicotinamide Adenine dinucleotide (NAD^+) Mean (rat CSF): 0.8 µM | Nicotinamide Adenine dinucleotide phophate (NADP^+) Mean (rat CSF): 0.09 µM | Ornithine Mean (rat CSF): 2.3 µM | Phenylalanine (Phe) Mean (rat CSF): 3.1 µM | Phosphocreatine Mean (rat CSF): 6.9 µM | Phosphoenolpyruvic acid Mean (rat CSF): 0.2 µM | Pyruvic acid Mean (rat CSF): 29 µM | Ribose 5-phosphate Mean (rat CSF): 0.07 µM | Ribulose 5-phosphate Mean (rat CSF): 0.10 µM | S-Adenosylmethionine Mean (rat CSF): 0.5 µM | Serine (Ser) Mean (rat CSF): 82 µM | Succinic acid Mean (rat CSF): 9.0 µM | Threonine (Thr) Mean (rat CSF): 54 µM | Tryptophan (Trp) Mean (rat CSF): 1.2 µM | Tyrosine (Tyr) Mean (rat CSF): 5.4 µM | UDP-glucose Mean (rat CSF): 0.3 µM | Urea Mean (rat CSF): 4,332 μM | Uric acid Mean (rat CSF): 1.8 µM | Valine (Val) Mean (rat CSF): 2.3 µM | Xanthine Mean (rat CSF): 1.6 µM | cyclic AMP (cAMP) Mean (rat CSF): 0.007 µM | cyclic GMP (cGMP) Mean (rat CSF): 0.003 µM | CSF levels of argininosuccinic acid (rats, vs control): significantly increased | CSF levels of isocitrate (rats, vs control): not altered; also recorded: did not alter | CSF levels of succinic acid (rats, vs control): significantly increased

CCCC(CCC)C(=O)[O-].[Na+] [VPA, valproic acid sodium salt]
2-Oxoisovaleric acid Mean (rat CSF): 4.3 µM | 3-Phosphoglyceric acid Mean (rat CSF): 0.3 µM | ADP-ribose Mean (rat CSF): 0.01 µM | Adenosine Mean (rat CSF): 0.2 µM | Alanin (Ala) Mean (rat CSF): 50 µM | Arginine (Arg) Mean (rat CSF): 27 µM | Argininosuccinic acid Mean (rat CSF): 0.7 µM | Asparagic acid (Asp) Mean (rat CSF): 1.6 µM | Asparagine (Asn) Mean (rat CSF): 4.0 µM | Carnosine Mean (rat CSF): 0.5 µM | Choline Mean (rat CSF): 7.8 µM | Citric acid Mean (rat CSF): 44 µM | Citrulline Mean (rat CSF): 3.6 µM | Creatine Mean (rat CSF): 56 µM | Creatinine Mean (rat CSF): 6.2 µM | Dihydroxyacetone phosphate Mean (rat CSF): 0.8 µM | Fructose 6-phosphate Mean (rat CSF): 0.2 µM | Glucose 6-phosphate Mean (rat CSF): 0.5 µM | Glutamic acid (Glu) Mean (rat CSF): 1.6 µM | Glutamine (Gln) Mean (rat CSF): 598 µM | Glutathione (GSSG) Mean (rat CSF): 0.9 µM | Glyceraldehyde 3-phosphate Mean (rat CSF): 1.1 µM | Glycerol 3-phosphate Mean (rat CSF): 7.0 µM | Glycine (Gly) Mean (rat CSF): 6.5 µM | Histidine (His) Mean (rat CSF): 7.1 µM | Homoserine Mean (rat CSF): 0.09 µM | Hydroxyproline Mean (rat CSF): 1.1 µM | Hypoxanthine Mean (rat CSF): 1.4 µM | Inosine monophosphate (IMP) Mean (rat CSF): 0.1 µM | Isocitric acid Mean (rat CSF): 1.6 µM | Isoleucine (Ile) Mean (rat CSF): 1.2 µM | Lactic acid Mean (rat CSF): 2,361 μM | Leucine (Leu) Mean (rat CSF): 4.5 µM | Lysine (Lys) Mean (rat CSF): 85 µM | Malic acid Mean (rat CSF): 0.7 µM | Methionine (Met) Mean (rat CSF): 3.3 µM | N-Carbamoylaspartic acid Mean (rat CSF): 0.02 µM | Nicotinamide Adenine dinucleotide (NAD^+) Mean (rat CSF): 0.8 µM | Nicotinamide Adenine dinucleotide phophate (NADP^+) Mean (rat CSF): 0.09 µM | Ornithine Mean (rat CSF): 2.2 µM | Phenylalanine (Phe) Mean (rat CSF): 2.9 µM | Phosphocreatine Mean (rat CSF): 6.8 µM | Phosphoenolpyruvic acid Mean (rat CSF): 0.15 µM | Pyruvic acid Mean (rat CSF): 21 µM | Ribose 5-phosphate Mean (rat CSF): 0.06 µM | Ribulose 5-phosphate Mean (rat CSF): 0.08 µM | S-Adenosylmethionine Mean (rat CSF): 0.5 µM | Serine (Ser) Mean (rat CSF): 83 µM | Succinic acid Mean (rat CSF): 7.4 µM | Threonine (Thr) Mean (rat CSF): 41 µM | Tryptophan (Trp) Mean (rat CSF): 1.0 µM | Tyrosine (Tyr) Mean (rat CSF): 5.2 µM | UDP-glucose Mean (rat CSF): 0.3 µM | Urea Mean (rat CSF): 3,714 μM | Uric acid Mean (rat CSF): 1.8 µM | Valine (Val) Mean (rat CSF): 2.1 µM | Xanthine Mean (rat CSF): 1.5 µM | cyclic AMP (cAMP) Mean (rat CSF): 0.006 µM | cyclic GMP (cGMP) Mean (rat CSF): 0.003 µM | CSF levels of arginine (rats, vs control): significantly altered | CSF levels of argininosuccinic acid (rats, vs control): significantly altered | CSF levels of glutamine (rats, vs control): significantly altered | CSF levels of threonine (rats, vs control): significantly altered | CSF levels of tryptophan (rats, vs control): significantly altered | CSF levels of isocitrate (rats, vs control, sodium salt): not altered; also recorded: did not alter
